{"source": "ChEMBL document CHEMBL1201862", "about": "“PubChem BioAssay data set” (2004)", "assay_in_all_cases": "DTP human tumour cell line panel, 48 h", "key": {"[1]": {"tested_on": "ACHN"}, "[2]": {"tested_on": "CCRF-CEM"}, "[3]": {"tested_on": "COLO 205"}, "[4]": {"tested_on": "HCT-15"}, "[5]": {"tested_on": "HT-29"}, "[6]": {"tested_on": "IGROV-1"}, "[7]": {"tested_on": "K562"}, "[8]": {"tested_on": "KM12"}, "[9]": {"tested_on": "M14"}, "[10]": {"tested_on": "NCI-H460"}, "[11]": {"tested_on": "OVCAR-3"}, "[12]": {"tested_on": "OVCAR-4"}, "[13]": {"tested_on": "RPMI-8226"}, "[14]": {"tested_on": "SF-268"}, "[15]": {"tested_on": "SK-MEL-28"}, "[16]": {"tested_on": "SK-MEL-2"}, "[17]": {"tested_on": "SNB-75"}, "[18]": {"tested_on": "SW-620"}, "[19]": {"tested_on": "UACC-62"}, "[20]": {"tested_on": "SN12C"}}, "note": "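Step 1: Grow cells in 96-well plates. Step 2: Expose to compound for 48 hours at 5 concentrations. Step 3: Interpolate endpoints linearly; if unreached, use highest concentration. GI50: concentration for 50% inhibition of growth.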 Activity calls are given as the source filed them. Rule as the data show it: active = GI50 up to about 1.1 µM and inactive = higher.", "data": [{"smiles": "c1ccc2c(CCNC3=NCCO3)cccc2c1", "values": [{"measurement": "GI50", "setting": "[1]", "value": "> 10 µM (inactive)"}, {"measurement": "GI50", "setting": "[2]", "value": "> 10 µM (inactive)"}, {"measurement": "GI50", "setting": "[3]", "value": "> 10 µM (inactive)"}, {"measurement": "GI50", "setting": "[4]", "value": "> 10", "unit": "µM"}, {"measurement": "GI50", "setting": "[5]", "value": "> 10 µM (inactive)"}, {"measurement": "GI50", "setting": "[6]", "value": "> 10 µM (inactive)"}, {"measurement": "GI50", "setting": "[7]", "value": "> 10 µM (inactive)"}, {"measurement": "GI50", "setting": "[8]", "value": "> 10 µM (inactive)"}, {"measurement": "GI50", "setting": "[9]", "value": "> 10 µM (inactive)"}, {"measurement": "GI50", "setting": "[10]", "value": "> 10 µM (inactive)"}, {"measurement": "GI50", "setting": "[11]", "value": "> 10 µM (inactive)"}, {"measurement": "GI50", "setting": "[12]", "value": "> 10 µM (inactive)"}, {"measurement": "GI50", "setting": "[13]", "value": "> 10 µM (inactive)"}, {"measurement": "GI50", "setting": "[14]", "value": "> 10 µM (inactive)"}, {"measurement": "GI50", "setting": "[15]", "value": "> 10 µM (inactive)"}, {"measurement": "GI50", "setting": "[16]", "value": "> 10 µM (inactive)"}, {"measurement": "GI50", "setting": "[17]", "value": "> 10 µM (inactive)"}, {"measurement": "GI50", "setting": "[18]", "value": "> 10 µM (inactive)"}, {"measurement": "GI50", "setting": "[19]", "value": "> 10 µM (inactive)"}]}, {"smiles": "CN(CCO)/N=N/c1[nH]cnc1C(N)=O", "values": [{"measurement": "GI50", "setting": "[1]", "value": "> 100 µM (inactive)"}, {"measurement": "GI50", "setting": "[2]", "value": "21.5 µM (inactive)"}, {"measurement": "GI50", "setting": "[3]", "value": "> 100 µM (inactive)"}, {"measurement": "GI50", "setting": "[4]", "value": "> 100", "unit": "µM"}, {"measurement": "GI50", "setting": "[5]", "value": "> 100 µM (inactive)"}, {"measurement": "GI50", "setting": "[6]", "value": "> 100 µM (inactive)"}, {"measurement": "GI50", "setting": "[8]", "value": "> 100 µM (inactive)"}, {"measurement": "GI50", "setting": "[9]", "value": "37.8 µM (inactive)"}, {"measurement": "GI50", "setting": "[10]", "value": "> 100 µM (inactive)"}, {"measurement": "GI50", "setting": "[11]", "value": "> 100 µM (inactive)"}, {"measurement": "GI50", "setting": "[12]", "value": "> 100 µM (inactive)"}, {"measurement": "GI50", "setting": "[13]", "value": "> 100 µM (inactive)"}, {"measurement": "GI50", "setting": "[14]", "value": "84.1 µM (inactive)"}, {"measurement": "GI50", "setting": "[15]", "value": "> 100 µM (inactive)"}, {"measurement": "GI50", "setting": "[16]", "value": "22.5 µM (inactive)"}, {"measurement": "GI50", "setting": "[20]", "value": "> 100 µM (inactive)"}, {"measurement": "GI50", "setting": "[17]", "value": "26.8 µM (inactive)"}, {"measurement": "GI50", "setting": "[18]", "value": "69.3 µM (inactive)"}, {"measurement": "GI50", "setting": "[19]", "value": "83.8 µM (inactive)"}]}, {"smiles": "CN(C)CCNC(=O)c1cccc2c(=O)c3ccccc3oc12", "values": [{"measurement": "GI50", "setting": "[2]", "value": "35.4 µM (inactive)"}, {"measurement": "GI50", "setting": "[3]", "value": "13.1 µM (inactive)"}, {"measurement": "GI50", "setting": "[4]", "value": 37.4, "unit": "µM"}, {"measurement": "GI50", "setting": "[5]", "value": "25.4 µM (inactive)"}, {"measurement": "GI50", "setting": "[6]", "value": "40.6 µM (inactive)"}, {"measurement": "GI50", "setting": "[7]", "value": "40.8 µM (inactive)"}, {"measurement": "GI50", "setting": "[8]", "value": "35.4 µM (inactive)"}, {"measurement": "GI50", "setting": "[10]", "value": "28.2 µM (inactive)"}, {"measurement": "GI50", "setting": "[11]", "value": "37.8 µM (inactive)"}, {"measurement": "GI50", "setting": "[12]", "value": "34.5 µM (inactive)"}, {"measurement": "GI50", "setting": "[13]", "value": "29.2 µM (inactive)"}, {"measurement": "GI50", "setting": "[14]", "value": "45.2 µM (inactive)"}, {"measurement": "GI50", "setting": "[15]", "value": "33.7 µM (inactive)"}, {"measurement": "GI50", "setting": "[16]", "value": "35.9 µM (inactive)"}, {"measurement": "GI50", "setting": "[20]", "value": "24.3 µM (inactive)"}, {"measurement": "GI50", "setting": "[17]", "value": "32.4 µM (inactive)"}, {"measurement": "GI50", "setting": "[18]", "value": "34.4 µM (inactive)"}, {"measurement": "GI50", "setting": "[19]", "value": "32.2 µM (inactive)"}]}, {"smiles": "COc1cc(C2c3cc4c(cc3[C@@H](Nc3ccccc3)C3COC(=O)[C@H]23)OCO4)cc(OC)c1O", "note": "(some centres undefined)", "values": [{"measurement": "GI50", "setting": "[2]", "value": "0.0279 µM (active)"}, {"measurement": "GI50", "setting": "[3]", "value": "1.92 µM (inactive)"}, {"measurement": "GI50", "setting": "[4]", "value": 0.417, "unit": "µM"}, {"measurement": "GI50", "setting": "[5]", "value": "1.23 µM (inactive)"}, {"measurement": "GI50", "setting": "[6]", "value": "2.21 µM (inactive)"}, {"measurement": "GI50", "setting": "[7]", "value": "0.931 µM (active)"}, {"measurement": "GI50", "setting": "[8]", "value": "1.47 µM (inactive)"}, {"measurement": "GI50", "setting": "[10]", "value": "< 0.01 µM (active)"}, {"measurement": "GI50", "setting": "[11]", "value": "2.48 µM (inactive)"}, {"measurement": "GI50", "setting": "[12]", "value": "5.6 µM (inactive)"}, {"measurement": "GI50", "setting": "[13]", "value": "0.234 µM (active)"}, {"measurement": "GI50", "setting": "[14]", "value": "1.04 µM (active)"}, {"measurement": "GI50", "setting": "[15]", "value": "2.72 µM (inactive)"}, {"measurement": "GI50", "setting": "[16]", "value": "2.79 µM (inactive)"}, {"measurement": "GI50", "setting": "[20]", "value": "0.485 µM (active)"}, {"measurement": "GI50", "setting": "[17]", "value": "0.875 µM (active)"}, {"measurement": "GI50", "setting": "[18]", "value": "0.792 µM (active)"}, {"measurement": "GI50", "setting": "[19]", "value": "0.388 µM (active)"}]}, {"smiles": "Nc1ccccc1SCc1csc(-c2ccc(Cl)cc2)n1", "values": [{"measurement": "GI50", "setting": "[1]", "value": "25.6 µM (inactive)"}, {"measurement": "GI50", "setting": "[2]", "value": "5.37 µM (inactive)"}, {"measurement": "GI50", "setting": "[3]", "value": "18 µM (inactive)"}, {"measurement": "GI50", "setting": "[4]", "value": 26.1, "unit": "µM"}, {"measurement": "GI50", "setting": "[5]", "value": "23.6 µM (inactive)"}, {"measurement": "GI50", "setting": "[6]", "value": "23 µM (inactive)"}, {"measurement": "GI50", "setting": "[7]", "value": "16.6 µM (inactive)"}, {"measurement": "GI50", "setting": "[8]", "value": "20 µM (inactive)"}, {"measurement": "GI50", "setting": "[9]", "value": "17.4 µM (inactive)"}, {"measurement": "GI50", "setting": "[10]", "value": "26.2 µM (inactive)"}, {"measurement": "GI50", "setting": "[11]", "value": "20.2 µM (inactive)"}, {"measurement": "GI50", "setting": "[12]", "value": "21.8 µM (inactive)"}, {"measurement": "GI50", "setting": "[13]", "value": "12.7 µM (inactive)"}, {"measurement": "GI50", "setting": "[14]", "value": "22.8 µM (inactive)"}, {"measurement": "GI50", "setting": "[15]", "value": "30.5 µM (inactive)"}, {"measurement": "GI50", "setting": "[16]", "value": "16.4 µM (inactive)"}, {"measurement": "GI50", "setting": "[20]", "value": "16.6 µM (inactive)"}, {"measurement": "GI50", "setting": "[17]", "value": "46.7 µM (inactive)"}, {"measurement": "GI50", "setting": "[18]", "value": "29.2 µM (inactive)"}, {"measurement": "GI50", "setting": "[19]", "value": "20 µM (inactive)"}]}]}
